Test results as given in PMC5227004, “Native ESI Mass Spectrometry Can Help to Avoid Wrong Interpretations from Isothermal Titration Calorimetry in Difficult Situations” (Journal of the American Society for Mass Spectrometry, 2016).

Experiments:
[1] = target: T1, DNA-polymerase processivity factor (β-ring) from Escherichia coli (Escherichia coli, UniProt P0A988); assay: Native ESI-MS titration of peptide binding to the E. coli β-ring; settings: βE.coli; processing taking into account separately the species R3
[2] = target: T1, DNA-polymerase processivity factor (β-ring) from Escherichia coli; assay: Isothermal titration calorimetry (ITC) of peptide binding to the E. coli β-ring; settings: βE.coli
Protocol: We used an iTC200 from Microcal (now Microcal-Malvern, UK) operated in the high-gain mode. […] In short, the β -rings were initially in the cell at concentrations ranging from 20 to 60 μM and the peptides were in the syringe at concentrations ranging from 200 to 600 μM. The buffer was Hepes 10 mM, pH 7.4, supplemented with NaCl 150 mM and EDTA 3 mM. Experiments were performed at different temperatures from 15 to 34 °C.
The processing of the ITC data was first performed with the same model as the one used for ESI-MS (one specific binding site per monomer). […] The advantage of this still unusual method is of fitting several titration curves with a minimum set of free parameters. All K d values obtained by ITC were corrected for 22.5 °C, which was the incubation temperature used in ESI-MS experiments. This was performed by using the Van’t Hoff equation: ∂ ln K d/∂T = − ΔH/(RT ^2), where ΔH is the variation of enthalpy during complex formation and R = 8.314 J mol^−1 K^−1 the gas constant. Note that such a correction is quite justified for K d values obtained by ITC since the primary output from ITC is precisely the enthalpic term ΔH governing the evolution of K d with the temperature.
This competition model requires determining a fixed fraction f 1 of the protein monomers binding their ligand according to a dissociation constant K d1 and an enthalpy variation ΔH 1, and a fixed fraction f 2 = 1 − f 1 binding their ligand according to a dissociation constant K d2 and an enthalpy variation ΔH 2 (we consider K d2 < K d1).

[3] = model with two competing modes of binding on the same site

T1 sequence (P0A988 whole entry, looked up): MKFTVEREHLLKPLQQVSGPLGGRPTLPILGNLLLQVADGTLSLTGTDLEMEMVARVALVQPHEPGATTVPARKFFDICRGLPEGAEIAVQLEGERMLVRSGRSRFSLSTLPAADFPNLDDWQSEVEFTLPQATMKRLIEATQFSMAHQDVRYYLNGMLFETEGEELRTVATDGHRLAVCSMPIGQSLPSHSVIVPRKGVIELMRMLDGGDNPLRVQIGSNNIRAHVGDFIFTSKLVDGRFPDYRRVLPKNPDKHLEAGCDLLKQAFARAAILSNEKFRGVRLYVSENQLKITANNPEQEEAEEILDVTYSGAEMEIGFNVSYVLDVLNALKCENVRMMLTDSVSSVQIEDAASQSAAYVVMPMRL

CC(=O)N[C@@H](CCC(N)=O)C(=O)N[C@@H](CC(C)C)C(=O)N[C@@H](CC(=O)O)C(=O)N[C@@H](CC(C)C)C(=O)N[C@@H](Cc1ccccc1)C(=O)O [P6]
P, probability of GPD (ESI-MS, Equations 4) [1]: 0.0528
ΔH1 (ITC), weaker binding mode [2, 3]: ≈ 1 kcal mol^−1
ΔH2 (ITC), stronger binding mode [2, 3]: ≈ –12 kcal mol^−1
ΔH (ITC), one binding mode ([2]; simple model with one binding mode, at 25 °C): ≈ –11.8 ± 0.2 kcal mol^−1
